According to ChEMBL document CHEMBL3507680, “University of Dundee, Gates Library screen for HepG2 cell viability”:

Test: Human HepG2 cell viability assay in 384 well format
Type: toxicity, cell-based
Set-up: dose 125 nL, time 70.5 hour; concentration not given beside the values
Conditions: HepG2 cells, read-out: Inhibition

| Structure (SMILES) | cytotoxicity at 70.5 h |
| --- | --- |
| Cc1nc(NCC2CC2)nc2c1COCC21CCN(C)C1 (stereo not given) | -3.52% |
| O=C(C1CCOC1)N1C[C@H]2CN(Cc3nccs3)C[C@H]2C1 (stereo not given in full) | -2.75% |
| Cc1cc(CN2CC[C@H]3C[C@H](c4nccs4)O[C@@H]3C2)no1 | -15.6% |
| O=C(c1ccc[nH]1)N1C[C@H]2CN(Cc3cccc(F)c3)C(=O)[C@H]2C1 | -0.293% |
| Cc1ncoc1C(=O)N1C[C@H]2CCC[C@@]2(COCC2CCOCC2)C1 | -12.7% |
| Cc1noc(C)c1CN1CC[C@H]2C[C@@H](c3ccncn3)O[C@@H]2C1 | -10.7% |
| Cn1cc(CN2CCCC3(CCN(Cc4cccnc4)C3=O)C2)cn1 (stereo not given) | -13.4% |
| CNC(=O)[C@@]12CCO[C@@H]1CCN(S(=O)(=O)c1cccc(C)c1)C2 | -5.31% |
| CC(=O)N1CCC2(CCN(C(=O)c3ccc(C)c(C(F)(F)F)c3)CC2)C1 | 37.6% |
| CCC1=N[C@@]2(CC[C@@H]3CN(C(=O)NCc4ccccc4)C[C@@H]32)C(=O)N1C | 26.3% |
| CC(C)N1CCO[C@H]2CN(C(=O)c3ccc(N(C)C)cc3)C[C@H]21 | -2.38% |
| CC(C)NC(=O)C1CN(C(=O)N2CCCC2)CC12CCOCC2 (stereo not given) | -1.86% |
| O=C(c1ccccn1)C1CCCN(c2nccc(CCC(F)(F)F)n2)C1 (stereo not given) | -13.1% |
| c1ccc(-c2nnc(CN3C[C@@H]4CC[C@H](C3)N(CC3CCC3)C4)o2)cc1 | 18.8% |
| COCCN(C/C=C/c1ccccc1)Cc1ccccn1 | 6.25% |
| O=C(NCCc1cccnc1)C1CCCN(Cc2ccco2)C1 (stereo not given) | 16.1% |
| Cc1ccccc1C(Nc1ncnc2c1CCNC2)c1ccccc1 (stereo not given) | -1.58% |
| CCOC(=O)CC(C)Nc1nc(C2CCCC2)nc2c1cnn2C (stereo not given) | -12.8% |
| CC1(c2ccccc2)CCC(=O)N(CCN2CCCOC2=O)C1 (stereo not given) | -6.79% |
| CCN1CC(NC(=O)Nc2nc(C)n(C(C)C)n2)CC1=O (stereo not given) | 9.96% |

| Structure (SMILES) | cytotoxicity at 70.5 h |
| --- | --- |
| CCC[C@H]1CN(S(=O)(=O)c2ccccc2)C[C@@H]1N | 16.4% |
| C=C(C)COc1cccc(CN(C)C(C)c2ccncn2)c1 (stereo not given) | -4.71% |
| CNc1nc(N2C[C@H](NC(=O)CCOC)[C@@H](C3CC3)C2)nc2c1CCC2 | -15.7% |
| Cc1cc(C)c(C(=O)NC(c2nnc3n2CCNCC3)C(C)C)c(C)c1 (stereo not given) | -5.04% |
| Cc1c(C(C)NC2CCCC2)cnn1-c1ccc(F)cc1F (stereo not given) | 0.586% |
| c1cc(-c2nc3c(c(NCCc4c[nH]cn4)n2)CCNCC3)ccn1 | 5.61% |
| Cc1ncsc1C(=O)N[C@@H](Cc1ccccc1)C(N)=O | -1.24% |
| CC(C)n1cnnc1CN1CCC2(CCCN(C3CCCCC3)C2=O)C1 (stereo not given) | -2.59% |
| COc1ccc(CN2CCC3(CC(=O)N(c4cncnc4)C3)C2)cc1 (stereo not given) | -15.2% |
| O=C(CC1CC1)N1CC[C@H]2[C@@H]1CCC(=O)N2c1cccnc1 | -16.4% |
| N#Cc1ccc(C(=O)N2CC[C@H]3[C@@H]2CCC(=O)N3c2cccnc2)cc1 | -6.84% |
| CN(C)c1ncnc2c1CCN(CC1CCCC1)CC2 | -13.2% |
| O=C(Cc1ccsc1)N1C[C@@H]2CN(Cc3ccoc3)CCO[C@@H]2C1 | -11.4% |
| CCS(=O)(=O)NC[C@]12COC[C@H]1CN(Cc1cccc(OC)c1)C2 | -11.2% |
| Cn1cc(CN2CCOCC3(C2)CN(c2ccccc2)C(=O)CO3)cn1 (stereo not given) | -5.28% |
| COCCN(C)C[C@@H]1CCC[C@@H]2CN(c3cc(OC)ncn3)C[C@@H]21 | -4.84% |
| CS(=O)(=O)N1CCC[C@]2(C[C@@H](Oc3ncccc3F)CO2)C1 | -5.05% |
| COc1ccc(CN2C[C@@H]3OCCN(CC4CCCO4)[C@@H]3C2)cc1 (stereo not given in full) | -19.1% |
| O=C1CO[C@@H]2CN(Cc3cccs3)C[C@H]2N1Cc1ccncc1 | 7.47% |
| c1cn2c(n1)CN(CC1CC1)CC(CN1CCOCC1)C2 (stereo not given) | -7.21% |
